In the supplement of paper PMC10307832:

Key:
Experiment in all cases: relative viability (nuclei count vs DMSO), 5 days (fraction); higher = more cells survive
[1] = compound: CC1=C(C(=NN1)C)CC2=C(C3=C(S2)N(C(=O)N(C3=O)C)CC(C)C)C(=O)N4C[C@@H](CO4)O + CCNC(=O)c1noc(-c2cc(C(C)C)c(O)cc2O)c1-c1ccc(CN2CCOCC2)cc1 [Luminespib] (partner 0.01 µM)
Summary of the method: (§1)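 Dosing by pin tool came one day after lung cancer cell lines were seeded in 1536-well plates, using either one drug or a fixed anchor-drug dose plus five library-drug doses (not always all listed) in √10 steps. After 5 days, nuclei were counted on 4× images. Relative viability is treated-well nuclei count divided by vehicle-well nuclei count, and values are medians of duplicate plates.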

[2] = compound: Cc1ccccc1C(C(=O)NC1CCCCC1)N(C(=O)Cn1ccnc1C)c1cccc(F)c1 [IDH-C35] + COc1cccc2cc(-c3nc([C@H]4CC[C@H](C(=O)O)CC4)n4ncnc(N)c34)[nH]c12 [OSI-027] (partner 0.5 µM)
Summary of the method: as §1

[3] = compound: CC1=C(C(=NN1)C)CC2=C(C3=C(S2)N(C(=O)N(C3=O)C)CC(C)C)C(=O)N4C[C@@H](CO4)O + CS(=O)(=O)N1CCN(Cc2cc3nc(-c4cccc5[nH]ncc45)nc(N4CCOCC4)c3s2)CC1 [Pictilisib] (partner 1 µM)
Summary of the method: as §1

[4] = compound: Cc1ccccc1C(C(=O)NC1CCCCC1)N(C(=O)Cn1ccnc1C)c1cccc(F)c1 [IDH-C35] + NC(=O)Nc1cc(-c2cccc(F)c2)sc1C(=O)N[C@H]1CCCNC1 [AZD7762] (partner 0.2 µM)
Summary of the method: as §1

Cell Line	relative viability ([1]; first compound 0.0025 µM)	relative viability ([1]; first compound 0.007906 µM)	relative viability ([1]; first compound 0.025 µM)	relative viability ([1]; first compound 0.07906 µM)	relative viability ([1]; first compound 0.25 µM)	relative viability ([2]; first compound 0.08 µM)	relative viability ([2]; first compound 0.253 µM)	relative viability ([2]; first compound 0.8 µM)	relative viability ([2]; first compound 2.53 µM)	relative viability ([2]; first compound 8 µM)	relative viability ([3]; first compound 0.0025 µM)	relative viability ([3]; first compound 0.007906 µM)	relative viability ([3]; first compound 0.025 µM)	relative viability ([3]; first compound 0.07906 µM)	relative viability ([3]; first compound 0.25 µM)	relative viability ([4]; first compound 0.08 µM)	relative viability ([4]; first compound 0.253 µM)	relative viability ([4]; first compound 0.8 µM)	relative viability ([4]; first compound 2.53 µM)	relative viability ([4]; first compound 8 µM)
NCI-H1355	0.836	0.617	0.684	0.778	0.724	0.422	0.445	0.382	0.466	0.395	0.45	0.562	0.528	0.405	0.5	0.805	0.889	0.715	0.72	0.657
NCI-H1395	0.768	0.785	0.607	0.461	0.631	0.66	0.701	0.709	0.618	0.579	0.63	0.598	0.525	0.634	0.735	0.396	0.408	0.407	0.446	0.403
NCI-H1437	1.13	1.14	1.04	1.19	1.16	0.876	0.907	0.842	0.828	0.756	0.461	0.44	0.451	0.46	0.465	1.09	1.12	1.17	1.06	1.08
NCI-H1651	0.843	0.762	0.969	0.855	1.09	0.7	0.686	0.746	0.644	0.703	0.579	0.634	0.651	0.558	0.52	0.454	0.518	0.463	0.438	0.413
NCI-H1666	0.991	1	1.06	1.04	1.1	0.828	0.81	0.865	0.845	0.841	0.405	0.399	0.53	0.482	0.406	0.934	1.03	0.795	0.712	0.94
NCI-H1734	0.297	0.184	0.173	0.184	0.167	0.643	0.621	0.564	0.6	0.597	0.474	0.544	0.488	0.473	0.486	0.575	0.623	0.532	0.49	0.551
NCI-H1755	0.592	0.511	0.524	0.356	0.438	0.754	0.64	0.707	0.68	0.706	0.445	0.42	0.44	0.479	0.497	0.47	0.574	0.453	0.452	0.462
NCI-H1792	0.458	0.488	0.416	0.338	0.379	0.725	0.718	0.705	0.742	0.75	0.33	0.263	0.273	0.193	0.246	0.795	0.725	0.657	0.719	0.609
NCI-H1793	0.608	0.17	0.208	0.164	0.187	0.225	0.256	0.279	–	0.262	0.308	0.395	0.166	0.226	0.272	0.46	0.446	0.46	0.349	0.443
NCI-H1915	0.868	0.738	0.75	0.768	0.816	0.645	0.602	0.62	0.597	0.56	0.965	0.927	0.897	0.878	0.975	0.674	0.7	0.696	0.663	0.716
NCI-H1944	0.81	1.11	0.714	0.698	0.801	0.418	0.415	0.413	0.442	0.392	0.351	0.376	0.356	0.389	0.386	0.587	0.731	0.492	0.462	0.491
NCI-H1975	0.237	0.294	0.168	0.16	0.147	0.64	0.71	0.778	0.741	0.763	0.324	0.298	0.293	0.301	0.315	0.755	0.75	0.766	0.818	0.793
NCI-H1993	0.727	0.706	0.765	0.65	0.749	0.522	0.532	0.57	0.505	0.555	0.866	0.888	0.89	0.728	0.756	0.755	0.749	0.755	0.784	0.713
NCI-H2085	0.443	0.412	0.412	0.41	0.343	0.772	0.929	0.722	0.741	0.638	0.527	0.455	0.449	0.468	0.399	1.04	1.09	0.953	0.985	0.924
NCI-H2087	0.142	0.217	0.175	0.168	0.16	0.59	0.518	0.537	–	0.532	0.958	0.908	0.838	1.04	0.921	1.39	1.32	1.16	1.23	1.36
NCI-H2126	0.959	0.845	0.878	0.892	0.951	0.767	0.731	0.68	0.651	0.677	0.513	0.493	0.509	0.478	0.494	0.983	0.96	0.983	0.927	0.946
